In publication PMC8085982 (Microbial Biotechnology, 2021) one finds Km data, which are given here for two compounds.

For test [1], the system named is Pa5930 laccase. As to conditions: 50 mM Tris-HCl pH 7.2, 24 °C.
The test system of test [2] is Pp4816 laccase. Conditions: 50 mM Tris-HCl pH 7.2, 24 °C.
In test [3] the test system is Pa5930 laccase. Kind of test: initial rates, OD420, sigmoidal. Format: biochemical, Pediococcus acidilactici. As to conditions: 50 mM sodium citrate pH 3.4, 24 °C; sigmoidal kinetics.
The subject of test [4] is Pp4816 laccase. Put plainly: initial rates, OD420, sigmoidal. Format: biochemical, Pediococcus pentosaceus. As to conditions: 50 mM sodium citrate pH 3.4, 24 °C; sigmoidal kinetics.

Broadly, the Km is the substrate concentration at which the rate is half of its maximum.

Read-outs that look alike come from different tables or passages of the source.

For `COc1cccc(OC)c1O` [2,6-DMP, 2,6‐dimethoxyphenol], the Km was 3110 ± 850 µM with Pa5930 laccase [1] and 6330 ± 1320 µM in the test with Pp4816 laccase [2].
Regarding `CCn1c(=NN=c2sc3cc(S(=O)(=O)O)ccc3n2CC)sc2cc(S(=O)(=O)O)ccc21` [ABTS, 2,2‐azino‐bis(3‐ethylbenzothiazoline‐6‐sulfonic acid)], the Km was 330 ± 40 µM in the test on Pa5930 laccase [3] and 310 ± 30 µM with Pp4816 laccase [4].
